# Read-outs that look alike come from different tables or passages of the source.
# Assays:
# Xenopus IRBP Module 3 = target: T1, Xenopus IRBP Module 3 (Xenopus laevis, UniProt Q7SZI7); test: Fluorometric titration (enhancement, quenching); format: binding
# T1 construct: cDNAs corresponding to the full-length IRBP, module 1, and module 2 were expressed in pThioHis; modules 3 and 4 were expressed in pTrxFus; made in house; host or cells: E. coli GI724 / GI698 (pTrxFus)
# Description: (§1) Enhancement of retinol fluorescence and quenching of the intrinsic protein fluorescence were used to monitor binding of all-trans retinol to the recombinant IRBPs. We previously derived an equation that is generally useful for describing such quantum yield changes that are consequent upon ligand binding. This equation has been previously applied to the analysis of binding by monitoring the enhancement of retinol fluorescence. In this case, where excitation is at 330 nm and emission is monitored at 480, the fluorescence enhancement (Fenh) depends on the total retinol concentration (Rt), the dissociation constant (Kd ^all-trans), the number of retinol-binding sites per protein molecule (N) and the total protein concentration (Pt).
# (§2) Assuming that there is a single type of noninteracting site on the protein, (Fenh) is expected to be linearly related to the concentration of bound retinol molecules. Fenh is given by the relation
# (§3) Fenh=C1+C2[Rtall−trans−(Rtall−trans+NPt+Kdall−trans)^2−4NPtRtall−trans] MathType@MTEF@5@5@+=feaafiart1ev1aaatCvAUfKttLearuWrP9MDH5MBPbIqV92AaeXatLxBI9gBaebbnrfifHhDYfgasaacH8akY=wiFfYdH8Gipec8Eeeu0xXdbba9frFj0=OqFfea0dXdd9vqai=hGuQ8kuc9pgc9s8qqaq=dirpe0xb9q8qiLsFr0=vr0=vr0dc8meaabaqaciaacaGaaeqabaqabeGadaaakeaacqWGgbGrdaWgaaWcbaGaemyzauMaemOBa4MaemiAaGgabeaakiabg2da9iabdoeadnaaBaaaleaacqaIXaqmaeqaaOGaey4kaSIaem4qam0aaSbaaSqaaiabikdaYaqabaGcdaWadaqaaiabdkfasnaaDaaaleaacqWG0baDaeaacqWGHbqycqWGSbaBcqWGSbaBcqGHsislcqWG0baDcqWGYbGCcqWGHbqycqWGUbGBcqWGZbWCaaGccqGHsisldaGcaaqaamaabmaabaGaemOuai1aa0baaSqaaiabdsha0bqaaiabdggaHjabdYgaSjabdYgaSjabgkHiTiabdsha0jabdkhaYjabdggaHjabd6gaUjabdohaZbaakiabgUcaRiabd6eaojabdcfaqnaaBaaaleaacqWG0baDaeqaaOGaey4kaSIaem4saS0aa0baaSqaaiabdsgaKbqaaiabdggaHjabdYgaSjabdYgaSjabgkHiTiabdsha0jabdkhaYjabdggaHjabd6gaUjabdohaZbaaaOGaayjkaiaawMcaamaaCaaaleqabaGaeGOmaidaaOGaeyOeI0IaeGinaqJaemOta4Kaemiuaa1aaSbaaSqaaiabdsha0bqabaGccqWGsbGudaqhaaWcbaGaemiDaqhabaGaemyyaeMaemiBaWMaemiBaWMaeyOeI0IaemiDaqNaemOCaiNaemyyaeMaemOBa4Maem4CamhaaaqabaaakiaawUfacaGLDbaaaaa@8490@
# (§4) The equation was fit to the data by nonlinear least-squares analysis. To follow the quenching of the protein's intrinsic fluorescence the excitation and emission wavelengths were set to 280 nm and 340 nm, respectively, while the protein was titrated with all-trans retinol. For the quenching studies the inner filter effect was accounted for by graphical correction as previously described. Fluorescence measurements were made using an SLM 8000TM C photon counting spectrofluorometer corrected for wavelength dependence of source energy and detector response.
# Xenopus IRBP Module 4 = target: T2, Xenopus IRBP Module 4 (Xenopus laevis, UniProt Q7SZI7); test: Fluorometric titration (enhancement, quenching); format: binding
# T2 construct: cDNAs corresponding to the full-length IRBP, module 1, and module 2 were expressed in pThioHis; modules 3 and 4 were expressed in pTrxFus; made in house; host or cells: E. coli GI724 / GI698 (pTrxFus)
# T2 sequence (Q7SZI7 923-1219): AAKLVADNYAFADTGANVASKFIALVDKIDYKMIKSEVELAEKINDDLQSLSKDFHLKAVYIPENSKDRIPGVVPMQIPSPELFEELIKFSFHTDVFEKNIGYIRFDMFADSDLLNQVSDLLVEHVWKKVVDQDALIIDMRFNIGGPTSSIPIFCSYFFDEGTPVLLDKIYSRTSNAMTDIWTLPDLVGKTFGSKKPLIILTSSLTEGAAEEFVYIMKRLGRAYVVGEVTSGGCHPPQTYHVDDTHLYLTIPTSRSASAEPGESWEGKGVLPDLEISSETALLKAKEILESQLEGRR
# Description: as §1, §2, §3, §4
# Xenopus IRBP Module 2 = target: T3, Xenopus IRBP Module 2 (Xenopus laevis, UniProt Q7SZI7); parameters: method as in Loew et al. Exp Eye Res. 2001, 73:257–264; details: ref Loew et al. Exp Eye Res. 2001, 73:257–264, cited from earlier work
# T3 construct: cDNAs corresponding to the full-length IRBP, module 1, and module 2 were expressed in pThioHis; modules 3 and 4 were expressed in pTrxFus; made in house; host or cells: E. coli Top10 (pThioHis)
# T3 sequence (Q7SZI7 319-617 limits assumed): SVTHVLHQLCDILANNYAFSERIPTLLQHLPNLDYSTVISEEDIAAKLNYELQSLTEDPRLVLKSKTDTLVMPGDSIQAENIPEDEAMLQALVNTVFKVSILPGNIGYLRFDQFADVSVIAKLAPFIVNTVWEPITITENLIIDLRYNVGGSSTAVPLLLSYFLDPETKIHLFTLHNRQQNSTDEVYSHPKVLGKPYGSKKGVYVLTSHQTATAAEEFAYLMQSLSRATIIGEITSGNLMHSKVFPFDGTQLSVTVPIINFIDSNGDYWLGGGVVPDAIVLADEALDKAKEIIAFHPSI
# Xenopus IRBP Module 1 = Xenopus IRBP Module 1 (Xenopus laevis, UniProt Q7SZI7); test: Fluorometric titration (enhancement, quenching); format: binding; parameters: cDNAs corresponding to the full-length IRBP, module 1, and module 2 were expressed in pThioHis; modules 3 and 4 were expressed in pTrxFus; made in house; host or cells: E. coli Top10 (pThioHis)
# Xenopus IRBP Module 1, sequence (Q7SZI7 23-315): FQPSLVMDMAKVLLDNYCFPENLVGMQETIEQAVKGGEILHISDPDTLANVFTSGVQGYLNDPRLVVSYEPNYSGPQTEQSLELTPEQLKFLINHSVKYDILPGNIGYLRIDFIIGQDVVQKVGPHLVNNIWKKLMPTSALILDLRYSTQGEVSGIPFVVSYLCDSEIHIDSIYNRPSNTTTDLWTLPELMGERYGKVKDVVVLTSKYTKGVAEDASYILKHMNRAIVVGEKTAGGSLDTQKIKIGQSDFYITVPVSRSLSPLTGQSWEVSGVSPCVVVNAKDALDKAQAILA
# Description: as §1, §2, §3, §4
# [1] = all-trans retinol fluorescence enhancement, ex 330 nm, em 480 nm
# [2] = all-trans retinol fluorescence enhancement, ex 330 nm, em 480 nm, read-out: Kd, Enhancement
# [3] = quenching by all-trans retinol, ex 280 nm, em 340 nm, read-out: Kd, Quenching
# T1 sequence (Q7SZI7 616-922): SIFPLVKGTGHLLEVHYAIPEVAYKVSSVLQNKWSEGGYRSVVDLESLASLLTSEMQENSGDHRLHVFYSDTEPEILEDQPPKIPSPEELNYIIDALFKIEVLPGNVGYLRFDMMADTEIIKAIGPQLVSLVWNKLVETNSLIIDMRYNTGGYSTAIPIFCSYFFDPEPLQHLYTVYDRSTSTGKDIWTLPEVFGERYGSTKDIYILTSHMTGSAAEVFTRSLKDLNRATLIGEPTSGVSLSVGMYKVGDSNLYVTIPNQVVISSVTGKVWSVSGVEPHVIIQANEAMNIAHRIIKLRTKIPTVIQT
structure (smiles),measurement,setting,value
CC1=C(/C=C/C(C)=C/C=C/C(C)=C/CO)C(C)(C)CCC1 [all-trans retinol],"Binding sites (N), Enhancement",Xenopus IRBP Module 3; [1],1.83 ± 0.42
same,Kd,Xenopus IRBP Module 3; [2],1180 ± 410 nM
same,Kd,Xenopus IRBP Module 3; [3],310 ± 40 nM
same,"Binding sites (N), Enhancement",Xenopus IRBP Module 4; [1],2.06 ± 0.53
same,Kd,"Xenopus IRBP Module 4; all-trans retinol fluorescence enhancement, ex 330 nm, em 480 nm, absence of 11-cis retinaldehyde, read-out: Kd, Enhancement",1790 ± 540 nM
same,Kd,Xenopus IRBP Module 4; [3],640 ± 50 nM
same,"Binding sites (N), Enhancement",Xenopus IRBP Module 2; [1],1.57 ± 0.04
same,Kd,Xenopus IRBP Module 2; [2],84 ± 22 nM
same,"Binding sites (N), Quenching","Xenopus IRBP Module 2; quenching by all-trans retinol, ex 280 nm, em 340 nm",1.31 ± 0.06
same,Kd,Xenopus IRBP Module 2; [3],140 ± 40 nM
same,"Binding sites (N), Enhancement",Xenopus IRBP Module 1; [1],0.83 ± 0.15
same,Kd,Xenopus IRBP Module 1; [2],440 ± 130 nM
same,Kd,Xenopus IRBP Module 1; [3],350 ± 80 nM

# Source: PMC2000878, “Module structure of interphotoreceptor retinoid-binding protein (IRBP) may provide bases for its complex role in the visual cycle – structure/function study of Xenopus IRBP” (BMC Biochemistry, 2007)
